According to paper PMC7650622, “3D-Printed Bubble-Free Perfusion Cartridge System for Live-Cell Imaging” (Sensors (Basel, Switzerland), 2020):
pEC50: −log10 of the molar value.

Target: T1, Or13a cells (OR from Drosophila melanogaster with Orco) (Drosophila melanogaster, UniProt Q9VXL0)
T1 construct: with Odorant receptor coreceptor
T1 sequence (Q9VXL0 1-418): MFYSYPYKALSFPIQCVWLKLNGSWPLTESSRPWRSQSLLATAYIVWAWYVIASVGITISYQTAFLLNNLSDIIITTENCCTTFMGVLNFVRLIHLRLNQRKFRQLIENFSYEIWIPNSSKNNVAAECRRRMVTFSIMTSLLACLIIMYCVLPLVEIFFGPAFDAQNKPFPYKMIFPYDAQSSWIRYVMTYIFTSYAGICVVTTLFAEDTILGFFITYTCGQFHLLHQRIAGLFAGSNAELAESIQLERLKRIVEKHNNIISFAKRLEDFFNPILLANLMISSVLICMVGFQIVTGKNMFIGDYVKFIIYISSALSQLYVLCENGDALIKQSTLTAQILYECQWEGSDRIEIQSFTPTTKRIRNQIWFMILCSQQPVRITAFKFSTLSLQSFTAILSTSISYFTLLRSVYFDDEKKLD
T1 sequence (Q9VNB5 1-486 partner): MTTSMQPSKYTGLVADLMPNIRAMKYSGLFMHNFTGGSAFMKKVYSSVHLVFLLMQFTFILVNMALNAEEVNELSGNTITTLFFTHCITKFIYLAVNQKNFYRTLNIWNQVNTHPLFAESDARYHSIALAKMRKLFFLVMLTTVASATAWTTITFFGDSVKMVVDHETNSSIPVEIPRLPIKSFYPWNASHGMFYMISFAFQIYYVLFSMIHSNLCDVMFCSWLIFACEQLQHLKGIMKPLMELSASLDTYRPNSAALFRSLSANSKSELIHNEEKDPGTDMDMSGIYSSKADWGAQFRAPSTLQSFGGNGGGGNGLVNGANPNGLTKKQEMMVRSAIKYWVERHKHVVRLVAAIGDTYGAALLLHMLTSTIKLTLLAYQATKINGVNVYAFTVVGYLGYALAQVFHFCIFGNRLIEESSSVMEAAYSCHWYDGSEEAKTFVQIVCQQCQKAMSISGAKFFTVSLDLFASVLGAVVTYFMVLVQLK
Test: GCaMP6s calcium imaging of Sf21 cells, dose-response
Type: cell-based

In the case of `C=CC(O)CCCCC` (stereo not shown) [1-octen-3-ol], the pEC50 was 5.08.
